Values after ≈ are worked out from the molar mass of the structure shown.

For data set [1], the system named is leukemia L1210. The data set is described as follows: leukemia L1210 implanted mice, survival time. The data set is classed as in vivo. The note with it: for Treated/Control value of survival time, L1210: similar to (ii). As for the experimental part: Mice implanted with leukemia L1210 are treated as described above with 30 mg. of active substance per kilo for a continuing period until all the animals succumb.

For data set [2], the system named is leukemia L1210. Briefly: leukemia L1210 ascites cells injected intraperitoneally, survival and non-takes (Table II). It counts as in vivo, mice. The following applies: daily i.p. 40 mg./Kg.; for Non-takes: groups of 10 mice, 10% DMSO control 1/10; for Mean survival days: 10% DMSO control 10.1; for Survival days: individual mice. As for the experimental part: v. A suspension of leukaemic cells from DBA2 mice heavily infected with leukemia L1210 is obtained by removing ascites from the peritoneal cavity. The ascitic fluid is diluted in saline and injected intraperitoneally at a level of 10^6 cell into groups of BDFi females.
Stock solutions of each of the dl, d and l isomers of 1,2-bis(3,5-dioxopiperaxin-1-yl)propane in dimethylsulphoxide (DMSO) are prepared and kept frozen. The solutions are thawed each morning and an aliquot diluted 10-fold with saline. Daily intraperitoneal injections of the three diluted solutions into groups of 10 mice are started on the day after innoculation of the leukaemic cells at a daily dosage level of 40 mg./Kg. (equivalent to 0.5 to 1.0 ml of solution per injection). A control group of mice is injected daily with a similar volume of 10% DMSO in saline.
In general, the deaths of mice in any group occur within a few days of each other. If one or more members of a group survive 5 days longer than any other of their companions, injections are stopped and if these mice survive a further 5 days they are classed as failures of transplantation. This is merely an objective criterion of a situation which is visually obvious; the "non-Takes" typically looking sleek and healthy and having no tumor at the inoculation site nor having their bellies swollen with ascitic fluid.

A short description of data set [3]: stability of aqueous salt solutions. It counts as physicochemical. The following applies: acid solution plus disodium hydrogen phosphate, pH 5.7; injection within 1 hour of preparation recommended. As for the experimental part:
When the compounds are to be formulated as salts, preferred formulations are prepared with methane sulphonic acid, isethionic acid, tartaric acid and other solubilizing acids. Salts thus formed are frequently difficult to isolate in view of the weak basicity of some of the parent compounds but their aqueous solutions, after adjustment to physiologically acceptable pH with buffers, are stable for extended periods of time. Solutions of similar strength, i.e., 0.5% (w/v), are also obtainable with hydrochloric acid.
iv. The product of Example 2 (0.548 g.) is added to 5 ml. of a 0.4N solution of (1) hydrochloric acid, (2) isethionic acid, (3) methane sulphonic acid, or (4) tartaric acid, and the mixture is made up to 100 ml. by the addition of water. The solution so obtained is added to an aqueous solution of disodium hydrogen phosphate (0.2M, 10 ml.) to provide a stable solution having a pH of 5.7. Injection of the solution within 1 hour of preparation is recommended.

Data set [4] deals with secondary mouse fibroblast cultures. Briefly: inhibition of 3H-thymidine incorporation (rate of DNA synthesis) in mammalian cell cultures. The data set is classed as cell-based. The following applies: 22 hours incubation; for inhibition at 0.3 µg/mL: 0.3 μg./ml.; for inhibition at 1 µg/mL: 1 μg./ml.; for inhibition at 3 µg/mL: 3 μg./ml.; for inhibition at 200 µg/mL: 200 μg./ml. As to the method:
The overall effects of various compounds on the rate of synthesis of DNA is mammalian cell cultures are determined with the method of Birnie and Simons (Experimental Cell Research, 1967, 46, 355) by measuring the changes in the amount of ^3 H-thymidine incorporated in 1 hour by secondary mouse fibroblast cultures which have been incubated with a particular compound for 22 hours.
Typical results illustrating the degree of inhibition of ^3 H-thymidine incorporation for the treated fibroblasts as compared with untreated fibroblasts are given in Table I. The results obtained can be regarded as a measure of cytotoxicity and correlate well with results obtained with implanted tumors in mice.

The test system of data set [5] is leukemia L1210. The data set is described as follows: inter-cerebrally implanted leukemia L1210. The data set is classed as in vivo.
A short description of data set [6]: physchem. The following applies: water. The source says: Although the invention is restricted to one stereoisomeric form as far as certain compounds are concerned, others can exist in different stereoisomeric forms, thus the cyclo-butane analogue (I,R1 R2 = C2 H4) can exist in a trans form and also a cis form.
The nature of data set [7]: survival and weight gain of treated S180 tumor-bearing mice. The data set is classed as in vivo. The note with it: fed at 30 mg./Kg. on 5 out of 8 days.
In data set [8] the test system is lymphosarcomas, fibrosarcomas, carcinomas, lymphoblastic leukemias and Hodgkin's disease. Briefly: trials in human patients with various forms of cancer. It counts as in vivo. The following applies: some previously treated unsuccessfully with other drugs or radiotherapy.
Data set [9] deals with Sarcoma 180 (S180). Briefly: implanted tumor Sarcoma 180, mean tumor weight. The data set is classed as in vivo, mice. As to the method:
(§1) ii. Mice having implanted tumors Sarcoma 180 and Adenocarcinoma 755, and rats having the implanted tumor Walker 256, are treated with 1,2-bis(3,5-dioxopiperazin-1-yl) ethane. The compound is administered by intraperitoneal injection of a suspension of the substance in isotonic saline containing 1/2% (w/v) carboxymethyl cellulose. The mice are dosed with 30 mg. of active substance per kilo daily for 5 out of 8 days, and their tumors are exercised and weighed. The rats are given one dose only of 400 mg. per kilo and maintained without further treatment for 8 days when their tumors are also removed and weighed. Compared with control animals typical Treated/Control values of mean tumor weight for the S180 and Ca 755 tumors are in the range of 5-10%, and for the Walker tumors of the order of 20%.
iii. In tests with tumor S180 similar to those described under (ii) typical Treated/Control values of mean tumor weight for dl-1,2-bis(3,5-dioxopiperazin-1-yl) butane and meso-2,3-bis(3,5-dioxopiperazin-1-yl) butane are 84% at 30 mg./Kg. and 22% at 0.25 mg./Kg. respectively.

Data set [10] relates to tumours and other forms of cancer. The data set is described as follows: anti-cancer / biological activity, general statement. The note with it: for biological activity of d and l forms compared with racemic dl mixture: each substantially free from the other and from the dl form.
Data set [11] deals with Walker 256. Briefly: implanted tumor Walker 256, mean tumor weight. The following applies: rats, i.p., one dose of 400 mg. per kilo, 8 days. The data set is classed as in vivo. As for the experimental part:
as §1

Data set [12] relates to Adenocarcinoma 755 (Ca 755). Briefly: implanted tumor Adenocarcinoma 755, mean tumor weight. The data set is classed as in vivo. The note with it: mice, i.p., 30 mg. per kilo daily for 5 out of 8 days. As to the method:
as §1

In data set [13] the test system is metastases. The data set is described as follows: inhibition of metastases. The following applies: in vivo.

As a reminder, the inhibition is the share of the control response that was lost under treatment. A low value points to little suppression. In general, solubility refers to how much of the substance goes into solution per volume. A lower solubility goes with a poorly soluble substance. On to `CC(CN1CC(=O)NC(=O)C1)N1CC(=O)NC(=O)C1` (racemic) [dl-1,2-bis(3,5-Dioxopiperazin-1-yl)propane], for which the “Treated/Control value for survival time, L1210” value in data set [1] (intraperitoneal, 30 mg./Kg. daily until death) came to 257%. The “Treated/Control value for survival time, L1210” value in [1] (orally, 75 mg./Kg.) amounted to 157%. In addition, the “Treated/Control value for survival time, L1210” value in [1] (subcutaneous, 30 mg./Kg. daily until death) was 223%. In addition, in data set [2], the “% Increase of survival time over controls” value (from here on “% Increase of survival time”) is 86%, the Non-takes was 0/10 and the Mean survival days came out at 18.8 days. The same molecule registered a Survival days in data set [2] (listed as dl-) of 25 days. In addition, the stability of solution entry in data set [3] is reported as “stable”. In data set [4], this molecule returned an inhibition at 0.3 µg/mL of 15% and an inhibition at 1 µg/mL of 48%. This molecule gave an inhibition at 5 µg/mL in data set [4] (5 μg./ml.) of 63%. In addition, the “effectiveness against inter-cerebrally implanted leukemia L1210” value in [5] (in vivo) is “effective”. In addition, the “ability to cross the blood-brain barrier” value in [5] (indicated by effect on inter-cerebrally implanted L1210) is given as “indicative of the ability of the compound to cross the blood-brain barrier”. Also, in [6], the solubility is around 1000 µg/mL (≈ 3.73 mM). Also, the survival of animals result in data set [7] is reported as “all the animals surviving”. Further, the weight gain in data set [7] (controls 29%) was found to be 12%. For the same molecule, the “regression and palliation of cancers in patients” value in data set [8] was “significant regression and palliation of the cancers”. Further, in data set [9] (mice, fed at 30 mg./Kg. on 5 out of 8 days), the “Treated/Control value for mean tumor weight, S180” value is 7%.

Regarding `C[C@H]([C@@H](C)N1CC(=O)NC(=O)C1)N1CC(=O)NC(=O)C1` (relative stereo) [dl-2,3-bis(3,5-dioxopiperazin-1-yl)butane, reference compound], in [1] (30 mg./Kg.), the “Treated/Control value of survival time, L1210” value is 80%. Also, the inhibition at 3 µg/mL in data set [4] was 3%. The molecule also returned an inhibition at 13 µg/mL in data set [4] (13 μg./ml.) of 26%. The “anti-cancer activity, in words” value in data set [10] is “essentially inactive”. The “Treated/Control value of mean tumor weight, S180” value in data set [9] (30 mg./Kg., similar to (ii)) is reported as 84%.

`O=C1CN([C@@H]2CC[C@H]2N2CC(=O)NC(=O)C2)CC(=O)N1` (relative stereo) [trans-1,2-bis(3,5-Dioxopiperazin-1-yl)cyclobutane] registered an inhibition at 3 µg/mL in [4] of 22%. The inhibition at 67 µg/mL in data set [4] (67 μg./ml.) worked out at 60%.

On to `O=C1CN(CCN2CC(=O)NC(=O)C2)CC(=O)N1` [1,2-bis(3,5-dioxopiperazin-1-yl)ethane, 1,2-bis(3,5-Dioxopiperazin-1-yl)ethane], for which the “Treated/Control value of mean tumor weight, Walker” value in [11] was around 20%. Also, the “Treated/Control value of mean tumor weight, Ca 755” value in [12] was 5-10%. This molecule also yielded an inhibition at 0.3 µg/mL in data set [4] of 21%. This molecule also displayed an inhibition at 8 µg/mL in [4] (8 μg./ml.) of 69%. Also, the “Treated/Control value of mean tumor weight, S180” value in [9] (mice, i.p., 30 mg. per kilo daily for 5 out of 8 days) was 5-10%.

Consider `CC(CN1CC(=O)NC(=O)C1)N1CC(=O)NC(=O)C1` (centres unmarked) [1,2-bis(3,5-dioxopiperazin-1-yl)propane], for which, in data set [13], the inhibition of metastases entry was “marked degree of inhibition of metastases”.

Take `C[C@@H](CN1CC(=O)NC(=O)C1)N1CC(=O)NC(=O)C1` [d-1,2-bis(3,5-Dioxopiperazin-1-yl)propane]: in [2], the “% Increase of survival time” value stood at 93%, the Non-takes is 0/10 and the Mean survival days came out at 19.5 days. This molecule also showed a Survival days in [2] (listed as d-) of 26 days. In data set [4], this molecule had an inhibition at 1 µg/mL of 44% and an inhibition at 200 µg/mL of 74%. Moreover, in data set [10], the “biological activity of d and l forms compared with racemic dl mixture” value is “no substantial difference in biological activity”.

As for `O=C(O)CN(CCN(CC(=O)O)CC(=O)O)CC(=O)O` [ethylene diamine tetra-acetic acid, reference compound], the “anti-cancer activity, in words” value in data set [10] is listed as “lack of activity”.

As to `C[C@H](CN1CC(=O)NC(=O)C1)N1CC(=O)NC(=O)C1` [l-1,2-bis(3,5-Dioxopiperazin-1-yl)propane], in [2], the “% Increase of survival time” value stood at 99%, the Non-takes is 0/10 and the Mean survival days is listed as 20.1 days. The molecule further displayed a Survival days in data set [2] (listed as l-) of 26 days. In addition, in [4], at 1 µg/mL the inhibition was 52% and testing at 200 µg/mL gave an inhibition of 72%. The molecule also displayed a solubility in data set [6] of around 11000 µg/mL (≈ 41 mM). In addition, in [10], the “biological activity of d and l forms compared with racemic dl mixture” value was “no substantial difference in biological activity”.

For `C[C@H]([C@H](C)N1CC(=O)NC(=O)C1)N1CC(=O)NC(=O)C1` [meso-2,3-bis(3,5-Dioxopiperazin-1-yl)butane], the “Treated/Control value of survival time, L1210” value in data set [1] (0.25 mg./Kg.) is given as 165%. For the same molecule, 0.002 µg/mL produced 19% inhibition in data set [4] (0.002 μg./ml.). In [4] (0.01 μg./ml.), this molecule came in with an inhibition at 0.01 µg/mL of 72%. The same molecule gave an inhibition at 1 µg/mL in data set [4] of 78%. Moreover, the “anti-cancer activity, in words” value in data set [10] was “significant activity”. Moreover, the “Treated/Control value of mean tumor weight, S180” value in data set [9] (0.25 mg./Kg., similar to (ii)) is on record as 22%.

These data come from patent US3941790A, “Bis diketopiperazines” (National Research Development Corporation, priority 1967, dated 1976).
